The text below walks through data of PMC3880613 (Journal of medicinal chemistry, 2013).

In general, IC50 refers to the concentration that gives 50% inhibition.

In one test the test system is PC43-10 cells (hRFC). As to conditions: read-out: IC50 growth inhibition PC43-10; cited from earlier work.
A further test addresses FRβ (Homo sapiens, UniProt P14207). In words: FR binding assay, competition with [3H]folic acid on D4 cells. As to conditions: D4 CHO cells, pH 7.4, [3H]folic acid 50 nM, 0°C; Figure 3, in words.
For another test, the target named is FRα (Homo sapiens, UniProt P15328). In words: FR binding assay, competition with [3H]folic acid on RT16 cells. As to conditions: RT16 CHO cells, pH 7.4, [3H]folic acid 50 nM, 0°C; Figure 3, in words.
For test [1], the system named is KB human nasopharyngeal carcinoma cells (hRFC/FRα/hPCFT). Briefly: Growth inhibition assay, KB human tumor cells. The note with it: 96 h, read-out: IC50 growth inhibition KB.

FRα, sequence (P15328 25-257): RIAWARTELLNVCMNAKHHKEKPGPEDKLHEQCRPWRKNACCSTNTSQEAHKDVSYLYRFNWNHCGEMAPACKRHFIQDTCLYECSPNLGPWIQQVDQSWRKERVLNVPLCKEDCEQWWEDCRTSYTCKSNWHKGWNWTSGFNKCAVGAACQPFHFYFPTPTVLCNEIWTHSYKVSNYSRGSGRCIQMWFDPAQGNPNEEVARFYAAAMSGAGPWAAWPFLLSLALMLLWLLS
FRβ, sequence (P14207 17-255): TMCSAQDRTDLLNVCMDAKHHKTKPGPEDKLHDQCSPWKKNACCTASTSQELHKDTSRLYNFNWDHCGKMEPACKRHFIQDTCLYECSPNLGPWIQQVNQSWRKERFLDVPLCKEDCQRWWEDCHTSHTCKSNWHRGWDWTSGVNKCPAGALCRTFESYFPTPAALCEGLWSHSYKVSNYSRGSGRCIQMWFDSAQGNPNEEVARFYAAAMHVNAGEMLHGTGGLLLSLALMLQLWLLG

As to `Nc1nc2[nH]c(CCCCc3ccc(C(=O)N[C@@H](CCC(=O)O)C(=O)O)cc3)cc2c(=O)[nH]1` [2b], the IC50 with PC43-10 cells (hRFC) was more than 1 µM.
For `Nc1nc2[nH]c(CCCCCCCCC(=O)N[C@@H](CCC(=O)O)C(=O)O)cc2c(=O)[nH]1` [3d, (S)-2-(9-(2-Amino-4-oxo-4,7-dihydro-3H-pyrrolo[2,3-d]pyrimidin-6-yl)nonanamido)pentanedioic acid], the “Relative binding affinity to FRβ (folic acid = 1.0)” value on FRβ was “approximating those for compounds 2a and 2b”. Besides, on FRα, the “Relative binding affinity to FRα (folic acid = 1.0)” value is “approximating those for compounds 2a and 2b”.
For `Nc1nc2[nH]c(CCCCCC(=O)O)cc2c(=O)[nH]1` [7e, 6-(2-Amino-4-oxo-4,7-dihydro-3H-pyrrolo[2,3-d]pyrimidin-6-yl)hexanoic acid], in test [1], the IC50 was more than 1 µM.
Consider `Nc1nc2[nH]c(CCCCCCC(=O)O)cc2c(=O)[nH]1` [7f, 7-(2-Amino-4-oxo-4,7-dihydro-3H-pyrrolo[2,3-d]pyrimidin-6-yl)heptanoic acid], for which the IC50 in test [1] is more than 1 µM.
Still for that read-out and setting: under `Nc1nc2[nH]c(CCCCCCCC(=O)O)cc2c(=O)[nH]1` [7g, 8-(2-Amino-4-oxo-4,7-dihydro-3H-pyrrolo[2,3-d]pyrimidin-6-yl)octanoic acid] stands more than 1 µM.
For the molecule `Nc1nc2[nH]c(CCCCCCCCC(=O)O)cc2c(=O)[nH]1` [7h, 9-(2-Amino-4-oxo-4,7-dihydro-3H-pyrrolo[2,3-d]pyrimidin-6-yl)nonanoic acid], the IC50 in test [1] is more than 1 µM. The “Relative binding affinity to FRα (folic acid = 1.0)” value on FRα is listed as “detectable binding”.
